Tests used:
[1] = tested on: Fos-positive cells in brain regions of interest; assay: Fos immunohistochemistry in rat brain; assay type: in vivo, male Wistar rats; settings: OT 1 mg/kg, SOC-1 5 mg/kg
Method: Fos immunohistochemistry was used to identify the neural “signature” of SOC-1 (5 mg/kg) in rat brain relative to injections of peripheral oxytocin (OT) (1 mg/kg). SOC-1 produces a similar overall pattern of neural activation and behavioural effects as OT. However, the effects are much larger and additional areas are activated by SOC-1 that are implicated in the regulation of social behaviour (e.g. lateral septum, medial preoptic area and supraoptic nucleus). SOC-1 produces powerful activation of OT-containing neurons in both the supraoptic (FIG. 6: (A)=vehicle; (B)=oxytocin; and (C)=SOC-1) and paraventricular nucleus of the hypothalamus.

[2] = tested on: SH-SY5Y neuroblastoma cells; assay: Cell viability (Cell Titer Blue); assay type: cell-based; settings: 48 hours; for Viability: mean ± SD
Method: (§1) No apparent cytotoxicity of SOC-1 has been seen in vitro or toxicity in vivo. In a test, SH-SY5Y neuroblastoma cells and HEK-293 cells (4×10^4 cells per well) were exposed to OT or SOC-1 (0.01-10 μM) for 48 hours, with daily media changes. Viability of cells was assessed after a 4 hour exposure to Cell Titer Blue (Promega).

HEK-293 cells = assay: Cell viability (Cell Titer Blue); assay type: cell-based; settings: 48 hours; for Viability: mean ± SD
Method: as §1

male Sprague Dawley rats = assay: Methamphetamine-primed reinstatement; assay type: in vivo, rat; settings: C25 10 mg/kg IP or SR49059 1 mg/kg IP before SOC-1 10 mg/kg
Wistar rats = assay: Biotelemetry of body temperature and heart rate; assay type: in vivo, rat; settings: SR49059 10 mg/kg before SOC-1
Method: FIG. 7—The monitored body temperatures of Wistar rats administered vehicle, SOC-1 (5 mg/kg), or SOC-1 and the V1A receptor antagonist SR49059 (10 mg/kg).
FIG. 8—The monitored heart rates for Wistar rats administered vehicle, SOC-1 (5 mg/kg), or SOC-1 and the V1A receptor antagonist SR49059 (10 mg/kg).
However, the rats were not ataxic or comatose, they were simply in a relaxed quiescent state. […] Effects on body temperature and other behaviours are not blocked by pre-treatment with the vasopressin V1A receptor antagonist SR49059 (10 mg/kg). […] The data in these two studies was gathered with DataSciences International biotelemetry system.

SMILES: CC[C@H](C)[C@@H]1NC(=O)[C@H](Cc2ccc(O)cc2)NC(=O)[C@@H](N)CSSC[C@@H](C(=O)N2CCC[C@H]2C(=O)N[C@@H](CC(C)C)C(=O)NCC(N)=O)NC(=O)[C@H](CC(N)=O)NC(=O)[C@H](CCC(N)=O)NC1=O [Oxytocin, oxytocin, reference compound]
- Mean number of Fos-positive cells, BNST (dorsolateral division) [1]: 11.33
- Mean number of Fos-positive cells, BNST (middle anterior part)) [1]: 5.83
- Mean number of Fos-positive cells, Central nucleus of the amygdala [1]: 25.14
- Mean number of Fos-positive cells, Lateral Parabrachial nucleus [1]: 19.14
- Mean number of Fos-positive cells, Lateral septum (ventral) [1]: 9.17
- Mean number of Fos-positive cells, Locus Ceruleus [1]: 4.14
- Mean number of Fos-positive cells, Medial preoptic area [1]: 3.8
- Mean number of Fos-positive cells, Median preoptic nucleus [1]: 7.17
- Mean number of Fos-positive cells, Nucleus of Solitary Tract [1]: 31.68
- Mean number of Fos-positive cells, PAG (ventrolateral) [1]: 6.57
- Mean number of Fos-positive cells, Paraventircular nucleus [1]: 55.57
- Mean number of Fos-positive cells, Supraoptic nucleus [1]: 4.57
- Mean percent of OT cells that were Fos positive, Paraventircular nucleus [1]: 22.07%
- Mean percent of OT cells that were Fos positive, Supraoptic nucleus [1]: 13.5%
- Viability ([2]; 0.01 μM): 100.4 ± 2.4 percentage of vehicle viability
- Viability ([2]; 0.1 μM): 101.3 ± 1.0 percentage of vehicle viability
- Viability ([2]; 1 μM): 100.2 ± 1.1 percentage of vehicle viability
- Viability ([2]; 10 μM): 100.6 ± 2.9 percentage of vehicle viability
- differences in viability ([2]; 0.01-10 μM): No significant differences in viability
- Viability (HEK-293 cells; 0.01 μM): 97.8 ± 6.6 percentage of vehicle viability
- Viability (HEK-293 cells; 0.1 μM): 100.0 ± 3.2 percentage of vehicle viability
- Viability (HEK-293 cells; 1 μM): 101.5 ± 3.7 percentage of vehicle viability
- Viability (HEK-293 cells; 10 μM): 104.3 ± 2.6 percentage of vehicle viability
- differences in viability (HEK-293 cells; 0.01-10 μM): No significant differences in viability

SMILES: Cc1cccc2c1Nc1c(cnn1C)CN2 [FB-SOC-5, 1,9-Dimethyl-1,4,5,10-tetrahydrobenzo[b]pyrazolo[3,4-e][1,4]diazepine]
- melting point: 137 to 139 °C

SMILES: Cn1ncc2c1Nc1ccc(F)cc1NC2 [FB-SOC-2, 7-Fluoro-1-methyl-1,4,5,10-tetrahydrobenzo[b]pyrazolo[3,4-e][1,4]diazapine]
- melting point: 181 to 183 °C

SMILES: COCc1nnc(N2CC(Oc3ccc(F)cc3Cl)C2)n1-c1ccc(OC)nc1 [C25, 5-(3-(3-(2-chloro-4-fluorophenoxy)azetidin-1-yl)-5-(methoxymethyl)-4H-1,2,4-triazol-4-yl)-2-methoxypyridine, reference compound]
- block of the attenuating effect of SOC-1 on methamphetamine-primed reinstatement (male Sprague Dawley rats): failed to block the attenuating effect of SOC-1

SMILES: COc1ccc2c(c1)NCc1cnn(C)c1N2 [FB-SOC-6, 7-Methoxy-1-methyl-1,4,5,10-tetrahydrobenzo[b]pyrazolo[3,4-e][1,4]diazapine]
- melting point: 126 to 128 °C

SMILES: Cc1ccc2c(c1)NCc1cnn(C)c1N2 [FB-SOC-4, 1,7-Dimethyl-1,4,5,10-tetrahydrobenzo[b]pyrazolo[3,4-e][1,4]diazapine]
- melting point: 172 to 173 °C

SMILES: COc1ccc(S(=O)(=O)N2c3ccc(Cl)cc3[C@](O)(c3ccccc3Cl)[C@@H]2C(=O)N2CCC[C@H]2C(N)=O)cc1OC [SR49059, reference compound]
- block of the attenuating effect of SOC-1 on methamphetamine-primed reinstatement (male Sprague Dawley rats): failed to block the attenuating effect of SOC-1
- block of SOC-1 effects on body temperature and other behaviours by pre-treatment (Wistar rats): not blocked
